Results published in US20250129055A1, “GLUCOSIDE DERIVATIVE, AND PREPARATION METHOD THEREFOR AND APPLICATION THEREOF” (BEIJING INCREASE INNOVATIVE DRUG CO., LTD., priority 2020, published 2025).
Like-named read-outs stand apart in the source and are kept apart here.

What was measured:
[1] = test system: Alloxan diabetic mice; experiment: Efficacy in Alloxan diabetes model mice; type: in vivo; conditions: for HbA1c: 32nd day; for Concentration of blood glucose 2 h: 2 h after administration; for Concentration of blood glucose 4 h: 4 h after administration; for Concentration of blood glucose 8 h: 8 h after administration; for Concentration of blood glucose 24 h: 24 h after administration; for Concentration of blood glucose 0 h: before administration; for Concentration of blood glucose (random): random blood glucose on the 28th day
Experimental: Test Example 3 Research on efficacy of the compounds of the present invention in in vivo anti-Alloxan diabetes model mice
Alloxan diabetes mice were used. Normal ICR mice (male, 22-24 g) were randomly divided into groups including normal group, model group (con), positive control group and test compound groups with four different doses (n=11), and the mice without injection of Alloxan were in a normal control group (n=10).
Mice were administered with drugs by gavage.
Single administration: Mice were fasted for 3 h, and then the fasting blood (0 min) was collected. Then the mice in each group were administered with drugs by gavage. After 1 h, they were administered with a glucose ([…]) solution. Blood was collected at 30 min, 60 min, 120 min, and 180 min after the glucose administration. The blood glucose level was measured using glucose oxidase-peroxidase method, and the area under the blood glucose curve was calculated.
On the 6th day of continuous administration, under the condition of no fasting, blood samples were collected from mice before administration (0 h), 1 h, 2 h, 4 h, 8 h and 24 h after administration to measure blood glucose.
On the 9th day of continuous administration, the mice were fasted for 1 h and then administered with drugs by gavage. An oral glucose tolerance test (OGTT) was performed 1 h after administration.
On the 16th day of continuous administration, under the condition of no fasting, urine samples were collected from mice 1 h after administration to measure the concentration of urine glucose.
On the 22nd day of continuous administration, the mice were fasted for 1 h and then administered with drugs by gavage, and blood samples were collected to measure the fasting blood glucose 1 h after administration.
On the 28th day of continuous administration, under the condition of no fasting, blood samples were collected from mice 1 h after administration to measure the random blood glucose.
On the 32nd day of continuous administration, under the condition of no fasting, blood samples were collected from mice to measure glycosylated hemoglobin (HbA1c).
The data were expressed as mean±SEM (n=10-11). The comparison between multiple groups was performed by one-way analysis of variance, and the comparison between two groups was performed by Dunnett's t test. Statistical graphing was performed using Graphpad Prism software.

[2] = test system: mice; conditions: mouse, in vivo, 3000 mg/kg; for Deaths D 1: 1 day; for Deaths D 2: 2 day; for Deaths D 3: 3 day; for Deaths D 4: 4 day; for Deaths D 5: 5 day; for Deaths D 6: 6 day; for Deaths D 7: 7 day; for Death rate (%): 7 days
Experimental: Test Example 5 Research on Safety of the Compounds of the Present Invention
The compounds of the present invention were subjected to the following acute toxicity studies in mice.
The symptoms of toxicity reaction and death time were recorded.
On the day before administration, the animals were fasted but provided with water for 17 h. Each test drug group was administered with the corresponding test drug once by gavage, and the blank control group was administered with the same dose of vehicle once by gavage.

[3] = 0.25 mg/kg, OGTT on the 9th day
[4] = 0.25 mg/kg, non-fasting, 6th day
[5] = 0.5 mg/kg, non-fasting, 6th day
[6] = 1.0 mg/kg, non-fasting, 6th day
[7] = 2.0 mg/kg, non-fasting, 6th day

## CS[C@H]1O[C@@H](c2ccc(C)c(Cc3ccc4c(c3)OCCO4)c2)[C@H](O)[C@@H](O)[C@@H]1O (stereo in doubt) [Compound 2, 2-[3-(2,3-dihydro-1,4-benzodioxin-6-ylmethyl)-4-methylphenyl]-6-(methylthio)oxane-3,4,5-triol]
[1]; 0.25 mg/kg
  Concentration of fasting blood glucose, the 9th day: 307.7 ± 23.1 mg/dL
  Concentration of fasting blood glucose, the 22nd day: 305.6 ± 16.5 mg/dL
  HbA1c: 7.2 ± 0.4%
  Concentration of blood glucose (random): 491.1 ± 26.5 mg/dL
[1]; [3]
  AUC of blood glucose: 541.5 ± 22.8 mg·h/dL
  Concentration of blood glucose 0 min: 307.7 ± 23.1 mg/dL
  Concentration of blood glucose 30 min: 303.0 ± 8.6 mg/dL
  Concentration of blood glucose 60 min: 268.5 ± 13.5 mg/dL
  Concentration of blood glucose 120 min: 223.4 ± 11.6 mg/dL
[1]; 0.25 mg/kg, non-fasting, 6th day, 0-24 h
  AUC of blood glucose: 12051 ± 437.8 mg·h/dL
[1]; 0.25 mg/kg, non-fasting, 6th day, 1 h after administration
  Concentration of blood glucose 1 h: 458.4 ± 25.2 mg/dL
[1]; [4]
  Concentration of blood glucose 2 h: 430.7 ± 31.3 mg/dL
  Concentration of blood glucose 4 h: 404.3 ± 33.8 mg/dL
  Concentration of blood glucose 8 h: 478.2 ± 23.3 mg/dL
  Concentration of blood glucose 24 h: 585.3 ± 17.9 mg/dL
  Concentration of blood glucose 0 h: 540.1 ± 20.1 mg/dL
[1]; 0.5 mg/kg
  Concentration of fasting blood glucose, the 9th day: 249.7 ± 14.7 mg/dL
  Concentration of fasting blood glucose, the 22nd day: 236.0 ± 13.7 mg/dL
  HbA1c: 6.1 ± 0.4 %
  Concentration of blood glucose (random): 437.9 ± 23.9 mg/dL
[1]; 0.5 mg/kg, OGTT on the 9th day
  AUC of blood glucose: 468.3 ± 18.1 mg·h/dL
  Concentration of blood glucose 0 min: 249.7 ± 14.7 mg/dL
  Concentration of blood glucose 30 min: 290.3 ± 13.0 mg/dL
  Concentration of blood glucose 60 min: 231.0 ± 10.1 mg/dL
  Concentration of blood glucose 120 min: 175.0 ± 12.0 mg/dL
[1]; 0.5 mg/kg, non-fasting, 6th day, 0-24 h
  AUC of blood glucose: 12059 ± 372.3 mg·h/dL
[1]; 0.5 mg/kg, non-fasting, 6th day, 1 h after administration
  Concentration of blood glucose 1 h: 488.6 ± 15.9 mg/dL
[1]; [5]
  Concentration of blood glucose 2 h: 474.7 ± 18.1 mg/dL
  Concentration of blood glucose 4 h: 386.0 ± 21.8 mg/dL
  Concentration of blood glucose 8 h: 473.9 ± 28.2 mg/dL
  Concentration of blood glucose 24 h: 585.6 ± 15.0 mg/dL
  Concentration of blood glucose 0 h: 551.9 ± 18.2 mg/dL
[1]; 1.0 mg/kg
  Concentration of fasting blood glucose, the 9th day: 201.2 ± 11.4 mg/dL
  Concentration of fasting blood glucose, the 22nd day: 224.4 ± 17.6 mg/dL
  HbA1c: 5.9 ± 0.6 %
  Concentration of blood glucose (random): 395.8 ± 24.1 mg/dL
[1]; 1.0 mg/kg, OGTT on the 9th day
  AUC of blood glucose: 410.6 ± 15.6 mg·h/dL
  Concentration of blood glucose 0 min: 201.2 ± 11.4 mg/dL
  Concentration of blood glucose 30 min: 253.9 ± 7.7 mg/dL
  Concentration of blood glucose 60 min: 205.3 ± 9.8 mg/dL
  Concentration of blood glucose 120 min: 158.6 ± 8.8 mg/dL
[1]; 1.0 mg/kg, non-fasting, 6th day, 0-24 h
  AUC of blood glucose: 10310 ± 308.4 mg·h/dL
[1]; 1.0 mg/kg, non-fasting, 6th day, 1 h after administration
  Concentration of blood glucose 1 h: 417.1 ± 14.8 mg/dL
[1]; [6]
  Concentration of blood glucose 2 h: 409.8 ± 16.7 mg/dL
  Concentration of blood glucose 4 h: 323.8 ± 16.1 mg/dL
  Concentration of blood glucose 8 h: 368.3 ± 19.4 mg/dL
  Concentration of blood glucose 24 h: 550.3 ± 17.0 mg/dL
  Concentration of blood glucose 0 h: 444.1 ± 19.2 mg/dL
[1]; 2.0 mg/kg
  Concentration of fasting blood glucose, the 9th day: 184.9 ± 18.3 mg/dL
  Concentration of fasting blood glucose, the 22nd day: 211.9 ± 17.8 mg/dL
  HbA1c: 6.0 ± 0.4 %
  Concentration of blood glucose (random): 391.2 ± 26.0 mg/dL
[1]; 2.0 mg/kg, OGTT on the 9th day
  AUC of blood glucose: 393.9 ± 25.6 mg·h/dL
  Concentration of blood glucose 0 min: 184.9 ± 18.3 mg/dL
  Concentration of blood glucose 30 min: 246.0 ± 11.7 mg/dL
  Concentration of blood glucose 60 min: 205.1 ± 12.6 mg/dL
  Concentration of blood glucose 120 min: 141.7 ± 14.6 mg/dL
[1]; 2.0 mg/kg, non-fasting, 6th day, 0-24 h
  AUC of blood glucose: 11326 ± 225.5 mg·h/dL
[1]; 2.0 mg/kg, non-fasting, 6th day, 1 h after administration
  Concentration of blood glucose 1 h: 414.1 ± 18.3 mg/dL
[1]; [7]
  Concentration of blood glucose 2 h: 460.2 ± 15.0 mg/dL
  Concentration of blood glucose 4 h: 390.6 ± 28.2 mg/dL
  Concentration of blood glucose 8 h: 434.0 ± 18.8 mg/dL
  Concentration of blood glucose 24 h: 559.3 ± 10.4 mg/dL
  Concentration of blood glucose 0 h: 473.0 ± 16.2 mg/dL
[1]; 6th day, dapagliflozin 2.0 mg/kg, Compound 2 0.25-2.0 mg/kg
  Duration of hypoglycemic effect: still had a good hypoglycemic effect after 8-24 h
[1]; continuous administration for 16 days, 0.25-2.0 mg/kg, non-fasting, 1 h after administration
  Concentration of urine glucose: significantly increase
[1]; continuous administration for 22 days, 0.25-2.0 mg/kg
  Effect on body weight, food intake and water intake: no obvious effect
[1]; single administration, 0.25, 0.5, 1.0 and 2.0 mg/kg
  Blood glucose level and AUC after glucose administration: significantly lower
[2]; female
  Deaths D 1: 0
  Deaths D 2: 0
  Deaths D 3: 0
  Deaths D 4: 0
  Deaths D 5: 0
  Deaths D 6: 0
  Deaths D 7: 0
  Death rate (%): 0%
[2]; male
  Deaths D 1: 0
  Deaths D 2: 0
  Deaths D 3: 0
  Deaths D 4: 1
  Deaths D 5: 0
  Deaths D 6: 1
  Deaths D 7: 0
  Death rate (%): 40%
